Experimental data from article PMC9154793, “Design, synthesis, and biological evaluation of triazole-pyrimidine-methylbenzonitrile derivatives as dual A2A/A2B adenosine receptor antagonists” (Journal of Enzyme Inhibition and Medicinal Chemistry, 2022).

Experiments:
[1] = Metabolic stability in rat liver microsomes; format: in vitro ADME, Sprague–Dawley rats; details: for remaining at 10 min, 0.49 µM / remaining at 20 min, 0.49 µM / remaining at 0.5 h, 0.49 µM / remaining at 40 min, 0.49 µM / remaining at 50 min, 0.49 µM / remaining at 1 h, 0.49 µM / half-life at 0.49 µM: male, Sprague-Dawley, pooled rat liver microsomes; for remaining at 10 min, 0.49 µM / remaining at 20 min, 0.49 µM / remaining at 0.5 h, 0.49 µM / remaining at 40 min, 0.49 µM / remaining at 50 min, 0.49 µM / remaining at 1 h, 0.49 µM / CLint(liver) Rat: rat liver microsomes; for remaining at 0.5 h, 0.49 µM: 30 min; for remaining at 1 h, 0.49 µM: 60 min, read-out: Remaining (%, T = 60min) Rat; for half-life at 0.49 µM: rat, read-out: T1/2 Rat
Protocol: The metabolic stability is an important focus for further compound optimisation. Compounds 7f, 7i, and AB928 were chosen to evaluate the stability in rat liver microsomes and human liver microsomes. For the microsomal metabolic experiment, 7-ethoxycoumarin (7-EC) was used as a control. As shown in Table 4 (see Supporting information for raw data), the CLint(liver) of 7-EC in rats and humans was 10.0 and 9.0 ml/min/g liver, respectively, indicating the experimental test system was reliable.
Metabolic stabilities of compounds 7f, 7i, and AB928 in liver microsomes were studied with pooled human (male) liver microsomes solution (20 mg/ml) and male Sprague–Dawley rats pooled liver microsomes solution (20 mg/ml) purchased from Research Institute for Liver Diseases (Shanghai) Co. Ltd. Both liver microsomes solutions (140 μl) were diluted by 3948 μl of water and 280 μl of phosphate buffered saline. The assay procedure: 640 μl of diluted liver microsomes solution was added to a solution of compound working solution (16 μl, 25 μM in DMSO) and the mixed solution was incubated at 37 °C for 5 min. Then 160 μl of NADPH generating system was added and take out 100 μl from the mixed solution was added 200 μl of acetonitrile solution to stop the reaction at the set incubation time (0 min, 10 min, 20 min, 30 min, 40 min, 50 min, and 60 min). All stopped reaction solutions were vortex mixed (3 min) and centrifuged (10,000 rpm, 4 °C for 10 min). Then 50 μl of the supernatant was analysed by UPLC-MS/MS system (details of the analytical method see Supporting information). […]
8. Metabolic stability in human and rat liver microsomes
Metabolic stabilities of compounds 7f, 7i and AB928 in liver microsomes were studied with pooled human (male) liver microsomes solution (20 mg/mL) and male Sprague - Dawley rats pooled liver microsomes solution (20 mg/mL) purchased from Research Institute for Liver Diseases (Shanghai) Co. Ltd. Both liver microsomes solutions (140 μL) were diluted by 3948 μL of water and 280 μL of phosphate buffered saline. The assay procedure: 640 μL of diluted liver microsomes solution was added to a solution of compound working solution (16 μL, 25 μM in DMSO) and the mixed solution was […]
(1 picture or pasted object on this page, not shown here) […]
incubated at 37 ℃ for 5 min. Then 160 μL of NADPH generating system was added and take out 100 μL from the mixed solution was added 200 μL of acetonitrile solution to stop the reaction at the set incubation time (0 min, 10 min, 20 min, 30 min, 40 min, 50 min, and 60 min). All stopped reaction solutions were vortex mixed (3 min) and centrifuged (10000 rpm, 4 ℃ for 10 min). Then 50 μL of the supernatant was analyzed […]
8.2 Chromatography and mass spectrometry conditions
UPLC was performed using an […] UPLC system (Waters, Milford, MA, […]
USA). Separation was achieved on a Waters BEH C18 column(100 mm × 2.1 mm， 1.7 μm) at 40 ℃. The injection volume of the sample solution was 5 μL. The mobile phase consisted of water (0.1% formic acid and ammonium acetate) and acetonitrile solution (20:80, v/v) at a flow rate of 0.4 mL/min within a running time of 6 min. Mass spectrometric analysis was performed on a Waters Xevo TQ-S triple quadrupole instrument using electrospray ionization in positive mode. Quantification was performed using multiple reaction monitoring (MRM) mode to monitor precursor-product ion transitions (Table S1).
Table S1. Conditions of MRM Detection. […]
Table S2. Raw data of metabolic stability in human and rat liver microsomes. […]
(min) Hum Rat Hum Rat Hum Rat Hum Rat
9. Analytical method of pharmacokinetics assay
Animal experiments were performed according to the institutional ethical guidelines on animal care and approved by the Institute Animal Care and Use Committee at Binzhou […]
Female Bal b/c mice (sourced from Jinan Pengyue Experimental Animal Breeding […]

human A2A AR [2] = molecular target: T1, human A2A AR (Homo sapiens, UniProt P29274); assay: cAMP functional assay in CHO-K1/ADORA2A/Gα15 cells (NECA-stimulated, HTRF); format: cell-based; details: for IC50: CHO cells expressing hA2A AR, read-out: cAMP IC50 hA2A AR; for IC50 / inhibition at 0.01 µM / inhibition at 0.1 µM / inhibition at 1 µM: mean ± SEM; for inhibition at 0.01 µM / inhibition at 0.1 µM / inhibition at 1 µM: CHO-K1, relative to ZM241385 at 1 μM; for inhibition at 0.01 µM: compound at 10 nM, read-out: hA2A AR (%) inhibition of cAMP, 10 nM; for inhibition at 0.1 µM: compound at 100 nM, read-out: hA2A AR (%) inhibition of cAMP, 100 nM; for inhibition at 1 µM: compound at 1000 nM, read-out: hA2A AR (%) inhibition of cAMP, 1000 nM;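 as to all read-outs here: inhibition of NECA-driven intracellular cAMP build-up in the A2A-expressing cells, quantified with cAMP-d2 plus Eu3+-labelled anti-cAMP detection reagent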
Protocol: (§1) In the cAMP assay, CHO-K1/ADORA2A/Gα15 cells expressing human A2A AR and CHO-K1/ADORA2b/Gα15 cells expressing human A2B AR were activated by 5′-(N-ethylcarboxamido)adenosine (NECA) and triggered the accumulation of intracellular cAMP concentration.
(§2) CHO-K1/ADORA2A/Gα15 cells expressing human A2A AR and CHO-K1/ADORA2b/Gα15 cells expressing human A2B AR were both constructed by Genscript Biotech Corporation. […] The test stock solutions were diluted with different gradients for use. The procedure was exemplified by the cAMP functional assay on the A2A receptor: 10,000 cells/well of CHO-K1/ADORA2A/Gα15 were seeded in a 384-well plate in 20 μl of assay buffer. […] Then, 10 μl of detection reagent (cAMP-d2 and anti-cAMP-Eu3+) was added into each well of the plate and incubated at room temperature for 1 h.

human A2B AR = molecular target: T2, human A2B AR (Homo sapiens, UniProt P29275); assay: cAMP functional assay in CHO-K1/ADORA2b/Gα15 cells (NECA-stimulated, HTRF); format: cell-based; details: for inhibition at 0.1 µM: compound at 100 nM, relative to ZM241385 at 1 μM, read-out: hA2B AR (%) inhibition of cAMP, 100 nM
T2 sequence (P29275 1-332): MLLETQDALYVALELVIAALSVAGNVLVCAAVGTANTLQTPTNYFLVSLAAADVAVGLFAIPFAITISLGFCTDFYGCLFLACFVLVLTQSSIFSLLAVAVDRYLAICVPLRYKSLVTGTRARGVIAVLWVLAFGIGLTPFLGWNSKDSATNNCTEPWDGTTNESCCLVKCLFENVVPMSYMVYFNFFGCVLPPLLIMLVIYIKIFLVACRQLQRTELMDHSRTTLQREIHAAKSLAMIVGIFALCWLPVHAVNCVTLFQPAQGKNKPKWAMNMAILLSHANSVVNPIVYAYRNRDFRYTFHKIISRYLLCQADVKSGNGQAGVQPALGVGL
Protocol: as §1, §2

human A2A AR [3] = molecular target: T1, human A2A AR; assay: A2A AR radioligand binding assay ([3H]-ZM241385, HEK-293 cell membranes); details: hA2A AR, HEK-293 membranes, [3H]-ZM241385; mean ± SEM; read-out: Radioligand binding assays IC50
Protocol: We further tested the IC50 values of compounds 7f, 7i, 17, 22, and AB928 in inhibiting the cAMP production of CHO cells expressing hA2A AR or hA2B AR (Table 2). […] In addition, the competitive binding experiments of compounds 7f, 7i, and AB928 were performed using membrane preparation of HEK-293 cells expressing human A2A AR (Table 3).
The target compounds were tested to evaluate their affinity for the A2A AR on HEK-293 cell membranes expressing human A2A AR. [^3H]-ZM241385 was used as a radioligand. The assay buffer (50 mM Tris-HCl, pH 7.4; 10 mM MgCl2; 1 mM EDTA; 1 μg/ml adenosine deaminase), wash buffer (50 mM Tris-HCl, pH 7.4; 154 mM NaCl), and 0.5% PEI solution were prepared and stored at 4 °C for use. The affinities were tested following the procedure reported by Hu et al[4].

T1 sequence (P29274 whole entry): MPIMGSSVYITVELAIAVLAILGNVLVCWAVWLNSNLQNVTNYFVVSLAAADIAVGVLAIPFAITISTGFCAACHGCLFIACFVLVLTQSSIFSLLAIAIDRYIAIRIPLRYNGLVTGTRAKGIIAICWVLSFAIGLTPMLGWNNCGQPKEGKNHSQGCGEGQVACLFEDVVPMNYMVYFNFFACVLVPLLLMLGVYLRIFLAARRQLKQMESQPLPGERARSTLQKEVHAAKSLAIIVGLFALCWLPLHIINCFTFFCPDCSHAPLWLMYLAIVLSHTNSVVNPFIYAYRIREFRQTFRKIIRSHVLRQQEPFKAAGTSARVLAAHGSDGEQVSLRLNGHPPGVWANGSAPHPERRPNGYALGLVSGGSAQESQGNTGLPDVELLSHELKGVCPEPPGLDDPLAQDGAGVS

Compound	remaining at 10 min, 0.49 µM [1] [%]	remaining at 20 min, 0.49 µM [1] [%]	remaining at 0.5 h, 0.49 µM [1] [%]	remaining at 40 min, 0.49 µM [1] [%]	remaining at 50 min, 0.49 µM [1] [%]	remaining at 1 h, 0.49 µM [1] [%]	half-life at 0.49 µM [1] [h]	CLint(liver) Rat [1] [mL/min/g]	IC50 (human A2A AR [2]) [nM]	inhibition at 0.01 µM (human A2A AR [2]) [%]	inhibition at 0.1 µM (human A2A AR [2]) [%]	inhibition at 1 µM (human A2A AR [2]) [%]	fold less active than compound 7i (cAMP IC50, A2A receptor) (human A2A AR [2]; ratio of cAMP IC50 values vs 7i) [fold]	inhibition at 0.01 µM (human A2B AR; CHO-K1, compound at 10 nM, mean ± SEM, read-out: hA2B AR percentage of inhibition (I%) of cAMP, 10 nM (converted)) [%]	inhibition at 0.1 µM (human A2B AR; CHO-K1, mean ± SEM) [%]	IC50 (human A2A AR [3]) [nM]	IC50 (human A2B AR; CHO cells expressing hA2B AR, mean ± SEM, read-out: cAMP IC50 hA2B AR) [nM]	fold more active than AB928 (cAMP IC50, A2B AR) (human A2B AR; ratio of cAMP IC50 values vs AB928) [fold]
Cc1c(C#N)cccc1-c1cc(-c2cn(Cc3cccc(C#N)n3)nn2)nc(N)n1 [Compound 7f, 6-((4-(2-Amino-6-(3-cyano-2-methylphenyl)pyrimidin-4-yl)-1H-1,2,3-triazol-1-yl)methyl)picolinonitrile]	84.7	88	77.2	73.7	64.2	64	1.56	0.78	24.04 ± 0.06	54.9 ± 1.19	84.2 ± 2.94	92.41 ± 0.43	4	10.8	102.6 ± 0.24	158 ± 56.4	–	–
Cc1c(C#N)cccc1-c1cc(-c2cn(Cc3cccc(C(N)=O)n3)nn2)nc(N)n1 [Compound 7i, 6-((4-(2-Amino-6-(3-cyano-2-methylphenyl)pyrimidin-4-yl)-1H-1,2,3-triazol-1-yl)methyl)picolinamide]	74.9	72.8	67.8	61	53.8	50.7	1.12	1.08	6.007 ± 0.05	32.7 ± 1.8	95.9 ± 3.36	103 ± 2.82	–	–	103.3 ± 0.63	63.6 ± 13	14.1 ± 2.05	1.8
